The source of these data is patent publication US20250146039A1, “Terpene Glycoside Derivatives and Uses Thereof” (Firmenich SA, priority 2018, published 2025).

This assay deals with panel of taste experts. Nature of the assay: taste evaluation of purified compounds in a water base. The conditions noted are these: 500 ppm in a water base. Type of assay: in vivo. As for the experimental part: A composition comprising the at least one glucosylated terpene glucosides was generated according to the methods described in the preceding examples. The compounds were dissolved in water (alternatively, the compounds could also be combined into a 2% (w/w) or 4% (w/w) sucrose solution or 7% (w/w) inverted sugar plus 0.15% citric acid (w/w) solution), wherein the final concentration of the composition in solution may range from 1 to 1000 ppm. A panel of taste experts evaluated the solutions.

In the case of `C=C1C[C@@]23CC[C@H]4[C@@](C)(CCC[C@@]4(C)C(=O)O[C@@H]4OC(CO[C@H]5OC(CO)[C@@H](O)C(O)C5O)[C@@H](O)C(O)C4O)[C@@H]2CC[C@]1(O[C@@H]1OC(CO)[C@@H](O)C(O[C@@H]2OC(CO)[C@@H](O)C(O)C2O)C1O[C@@H]1OC(CO)[C@@H](O)C(O)C1O)C3` (stereo partly drawn) [compound of formula III, Mono α-1,6-glucosylated Rebaudioside A], the “taste perceived” value was “strong sweet taste” and the “times sweeter than sucrose” value is 200-300 times.
In the same order, the values of `C=C1C[C@@]23CC[C@H]4[C@@](C)(CCC[C@@]4(C)C(=O)O[C@@H]4OC(CO)[C@@H](O)C(O)C4O)[C@@H]2CC[C@]1(O[C@@H]1OC(CO)[C@@H](O)C(O[C@@H]2OC(CO[C@H]4OC(CO)[C@@H](O)C(O)C4O)[C@@H](O)C(O)C2O)C1O[C@@H]1OC(CO)[C@@H](O)C(O)C1O)C3` (stereo partly shown) [compound of formula VIII] are “strong sweet taste” and 200-300 times.
